Data taken from patent US20260263340A1, “Cosmetic Products and Cleaning Products Stabilized Against Microbial Attack” (Thor GmbH, priority 2023, published 2026).
Structures can show the parent of a compound that is named as a salt.

How the values were obtained:
yeast mixture 1 = assay: Repeated-inoculation microbiological stress test of all-purpose cleaner, yeast mixture 1; type: cell-based; parameters: key to Yeast growth after inoculation: 0: No growth; Minimal growth, 1 to 10 colonies visible over the entire streak; 2: Light growth, maximum 100 colonies; Moderate growth, maximum 300 to 400 colonies; Uniform growth, >400 colonies, single colonies still clearly recognizable; 5: Heavy growth, too many colonies to count, but no growth over the entire streak; 6: Full growth, barely any single colonies still apparent, growth over the entire streak; conditions: for Yeast growth after inoculation: All-purpose cleaner, 6 d
Text: (§1) The tested cleaning composition was an all-purpose cleaner without preservatives and having a pH of 7.7, the skin lotion was a body lotion without preservatives and having a pH of 7.1, and the shampoo was a hair shampoo without preservatives and having a pH of 6.9.
(§2) The cleaning composition was admixed with particular concentrations of guanidine carbonate and guanidine hydrochloride and homogenized. The body lotion and the hair shampoo were each admixed and homogenized with guanidine hydrochloride and with octane-1,2-diol alone or in combination.
(§3) The batches of the products thus obtained were inoculated repeatedly at particular intervals with bacteria mixtures or yeast mixtures that are used as standard for microbiological stress tests of industrial products or cosmetic products (bacteria mixture 1 and 2, yeast mixture 1 and 2).
(§4) The inoculum was added to the respective sample in each inoculation at 2% (v/w) as a fresh cell suspension in a physiological saline solution (0.9% NaCl). The cell count of the inoculum added was 10^8-10^9/ml for the bacteria mixtures, 10^7-10^8/ml for the yeast mixtures, consisting in equal parts of the individual bacteria strains or yeast strains.
(§5) The cell suspension of the yeast mixtures was produced by growing the yeast strains on Sabouraud glucose-agar at 25° C. for 48 hours and washing down the cell lawn in each case with physiological saline solution (0.9% NaCl). Further steps for establishment of a cell count of the inoculum suspension of 10^7/ml to 10^8/ml were effected analogously to the production of the bacteria suspensions.
(§6) In the examples, the samples were inoculated three times at weekly intervals with the respective cell suspensions (2% v/w) and the evolution of the bacteria or yeasts was followed by a semiquantitative evaluation method. After each inoculation, microbial infestation in the samples was evaluated in each case after incubation at 30° C. for 6 to 7 days. For this purpose, an aliquot was taken from each sample after homogenization using a sterile plastic inoculation loop (10 μl) and streaked evenly on agar plates (bacteria mixture 1 and 2 on tryptic soy agar, bacteria mixture 3 on DSMZ 31 alkaline nutrient agar, Sabouraud glucose-agar in the case of yeasts). The streaked agar plates were then incubated at 30° C. for 48 hours (bacteria mixture 1 and 2) or 5 to 7 days (bacteria mixture 3), or at 25° C. for 72 hours (yeast mixtures). After incubation, the bacteria colonies or yeast colonies that have grown on the agar plates were visually evaluated and quantified according to the following scheme:
Inoculation 2% (w/v) with yeast mixture 1, cell count 10^8/ml

yeast mixture 2 [1] = assay: Repeated-inoculation microbiological stress test of body lotion, yeast mixture 2; type: cell-based, Candida albicans, Candida parapsilosis; parameters: key to Yeast growth after inoculation: 0: No growth; Minimal growth, 1 to 10 colonies visible over the entire streak; 2: Light growth, maximum 100 colonies; Moderate growth, maximum 300 to 400 colonies; Uniform growth, >400 colonies, single colonies still clearly recognizable; 5: Heavy growth, too many colonies to count, but no growth over the entire streak; 6: Full growth, barely any single colonies still apparent, growth over the entire streak; conditions: for Yeast growth after inoculation: Body lotion, 6 d
Text: as §1, §2, §3, §4, §5, §6
(§7) Inoculation 2% (w/v) with yeast mixture 2, cell count 10^7/ml

yeast mixture 2 [2] = assay: Repeated-inoculation microbiological stress test of shampoo, yeast mixture 2; type: cell-based, Candida albicans, Candida parapsilosis; parameters: key to Yeast growth after inoculation: 0: No growth; Minimal growth, 1 to 10 colonies visible over the entire streak; 2: Light growth, maximum 100 colonies; Moderate growth, maximum 300 to 400 colonies; Uniform growth, >400 colonies, single colonies still clearly recognizable; 5: Heavy growth, too many colonies to count, but no growth over the entire streak; 6: Full growth, barely any single colonies still apparent, growth over the entire streak; conditions: for Yeast growth after inoculation: Shampoo, 6 d
Text: as §1, §2, §3, §4, §5, §6, §7

bacteria mixture 3 = assay: Repeated-inoculation microbiological stress test of body lotion, bacteria mixture 3; type: cell-based, Nesterenkonia spec.; parameters: key to Bacterial growth after inoculation: 0: No growth; Minimal growth, 1 to 10 colonies visible over the entire streak; 2: Light growth, maximum 100 colonies; Moderate growth, maximum 300 to 400 colonies; Uniform growth, >400 colonies, single colonies still clearly recognizable; 5: Heavy growth, too many colonies to count, but no growth over the entire streak; 6: Full growth, barely any single colonies still apparent, growth over the entire streak; conditions: for Bacterial growth after inoculation: Body lotion, 6 d
Text: as §1, §2, §3, §4
The cell suspension of the bacteria mixtures was produced by growing the individual bacteria at 30° C. for 24 h in liquid culture on a shaker. The medium used to grow the bacteria from bacteria mixtures 1 and 2 was Müller-Hinton liquid medium. The bacteria from bacteria mixture 3 were grown in Müller-Hinton liquid medium that had been adjusted to pH 9.5 to 9.7 with an alkaline buffer solution beforehand. After growing, the individual liquid cultures were centrifuged, and the cells were resuspended in physiological saline solution. In order to adjust the mixtures to a total cell count of 10^8 to 10^9/ml, the individual bacteria suspensions, if necessary, were diluted accordingly before being combined with saline solution. The cell count of the inoculum suspensions was determined in each case by chamber counting.
as §6
Inoculation 2% (w/v) with bacteria mixture 3, cell count 10^8/ml

[3] = +10000 ppm guanidine hydrochloride (6180 ppm guanidine) pH 6.8, 1. inoculation
[4] = +10000 ppm guanidine hydrochloride (6180 ppm guanidine) pH 6.8, 2. inoculation
[5] = +10000 ppm guanidine hydrochloride (6180 ppm guanidine) pH 6.8, 3. inoculation
[6] = +2500 ppm octanediol pH 7.0, 1. inoculation
[7] = +2500 ppm octanediol pH 7.0, 2. inoculation
[8] = +2500 ppm octanediol pH 7.0, 3. inoculation
[9] = +5000 ppm octanediol pH 7.0, 1. inoculation
[10] = +5000 ppm octanediol pH 7.0, 2. inoculation
[11] = +5000 ppm octanediol pH 7.0, 3. inoculation

N=C(N)N [guanidine hydrochloride]
Yeast growth after inoculation (yeast mixture 1; +1000 ppm guanidine hydrochloride (618 ppm guanidine) pH 7.7, 1. inoculation): 5
Yeast growth after inoculation (yeast mixture 1; +1000 ppm guanidine hydrochloride (618 ppm guanidine) pH 7.7, 2. inoculation): 6
Yeast growth after inoculation (yeast mixture 1; +1000 ppm guanidine hydrochloride (618 ppm guanidine) pH 7.7, 3. inoculation): 6
Yeast growth after inoculation (yeast mixture 1; +2500 ppm guanidine hydrochloride (1545 ppm guanidine) pH 7.7, 1. inoculation): 1 (Minimal growth, 1 to 10 colonies visible over the entire streak)
Yeast growth after inoculation (yeast mixture 1; +2500 ppm guanidine hydrochloride (1545 ppm guanidine) pH 7.7, 2. inoculation): 1 (Minimal growth, 1 to 10 colonies visible over the entire streak)
Yeast growth after inoculation (yeast mixture 1; +2500 ppm guanidine hydrochloride (1545 ppm guanidine) pH 7.7, 3. inoculation): 1 (Minimal growth, 1 to 10 colonies visible over the entire streak)
Yeast growth after inoculation (yeast mixture 1; +5000 ppm guanidine hydrochloride (3090 ppm guanidine) pH 7.6, 1. inoculation): 0
Yeast growth after inoculation (yeast mixture 1; +5000 ppm guanidine hydrochloride (3090 ppm guanidine) pH 7.6, 2. inoculation): 0
Yeast growth after inoculation (yeast mixture 1; +5000 ppm guanidine hydrochloride (3090 ppm guanidine) pH 7.6, 3. inoculation): 1 (Minimal growth, 1 to 10 colonies visible over the entire streak)
stability of the all-purpose cleaner to microbial infestation by yeasts (yeast mixture 1; addition of 1516 ppm of guanidine in the form of guanidine hydrochloride at pH 7.7): distinct improvement in stability
Yeast growth after inoculation (yeast mixture 2 [1]; [3]): 5
Yeast growth after inoculation (yeast mixture 2 [1]; [4]): 6
Yeast growth after inoculation (yeast mixture 2 [1]; [5]): 6
stability of the body lotion to microbial infestation by yeasts (yeast mixture 2 [1]; addition of 4553 ppm of guanidine in the form of guanidine hydrochloride at pH 6.9): distinct improvement in stability
Yeast growth after inoculation (yeast mixture 2 [2]; +10000 ppm guanidine hydrochloride (6070 ppm guanidine) pH 6.8, 1. inoculation): 4 (Uniform growth, >400 colonies, single colonies still clearly recognizable)
Yeast growth after inoculation (yeast mixture 2 [2]; +10000 ppm guanidine hydrochloride (6070 ppm guanidine) pH 6.8, 2. inoculation): 6
Yeast growth after inoculation (yeast mixture 2 [2]; +10000 ppm guanidine hydrochloride (6070 ppm guanidine) pH 6.8, 3. inoculation): 6
stability of the shampoo to microbial infestation by yeasts (yeast mixture 2 [2]; table 6, addition of 4553 ppm of guanidine in the form of guanidine hydrochloride at pH 6.9): distinct improvement in stability
Bacterial growth after inoculation (bacteria mixture 3; [3]): 6
Bacterial growth after inoculation (bacteria mixture 3; [4]): 6
Bacterial growth after inoculation (bacteria mixture 3; [5]): 6
stability of the body lotion to microbial infestation by bacteria (bacteria mixture 3; addition of 3035 ppm of guanidine in the form of guanidine hydrochloride at pH 7.0): distinct improvement in stability

CCCCCCC(O)CO (stereo not shown) [octanediol, octane-1,2-diol]
Yeast growth after inoculation (yeast mixture 2 [1]; [6]): 5
Yeast growth after inoculation (yeast mixture 2 [1]; [7]): 6
Yeast growth after inoculation (yeast mixture 2 [1]; [8]): 6
Yeast growth after inoculation (yeast mixture 2 [1]; [9]): 3 (Moderate growth, maximum 300 to 400 colonies)
Yeast growth after inoculation (yeast mixture 2 [1]; [10]): 3 (Moderate growth, maximum 300 to 400 colonies)
Yeast growth after inoculation (yeast mixture 2 [1]; [11]): 2 (Light growth, maximum 100 colonies)
Yeast growth after inoculation (yeast mixture 2 [2]; +2500 ppm octanediol pH 6.9, 1. inoculation): 4 (Uniform growth, >400 colonies, single colonies still clearly recognizable)
Yeast growth after inoculation (yeast mixture 2 [2]; +2500 ppm octanediol pH 6.9, 2. inoculation): 5
Yeast growth after inoculation (yeast mixture 2 [2]; +2500 ppm octanediol pH 6.9, 3. inoculation): 6
Yeast growth after inoculation (yeast mixture 2 [2]; +5000 ppm octanediol pH 6.9, 1. inoculation): 1 (Minimal growth, 1 to 10 colonies visible over the entire streak)
Yeast growth after inoculation (yeast mixture 2 [2]; +5000 ppm octanediol pH 6.9, 2. inoculation): 2 (Light growth, maximum 100 colonies)
Yeast growth after inoculation (yeast mixture 2 [2]; +5000 ppm octanediol pH 6.9, 3. inoculation): 2 (Light growth, maximum 100 colonies)
Bacterial growth after inoculation (bacteria mixture 3; [6]): 4 (Uniform growth, >400 colonies, single colonies still clearly recognizable)
Bacterial growth after inoculation (bacteria mixture 3; [7]): 6
Bacterial growth after inoculation (bacteria mixture 3; [8]): 6
Bacterial growth after inoculation (bacteria mixture 3; [9]): 1 (Minimal growth, 1 to 10 colonies visible over the entire streak)
Bacterial growth after inoculation (bacteria mixture 3; [10]): 3 (Moderate growth, maximum 300 to 400 colonies)
Bacterial growth after inoculation (bacteria mixture 3; [11]): 3 (Moderate growth, maximum 300 to 400 colonies)
